Data from PubChem BioAssay AID330 (DTP/NCI, 2004).
“And” between values parts separate entries of the source, which are not always exact repeats. Equal values may be shown once. Toxic doses and inconclusive results are not listed.

Test system: P388 leukemia ip, CD2F1 mice, survival T/C
Experiment: NCI In Vivo Anticancer Drug Screen. Data for tumor model P388 Leukemia (intraperitoneal) in CD2F1 (CDF1) mice
Details: endpoint: median survival time, higher = longer survival
Procedure, shortened: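 Mice carrying the transplanted tumor received test compound or vehicle. Survival was recorded in each group, and the value is the treated-group measurement divided by that of the vehicle-treated control group.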

[1] = dose: 12.5 mg/kg/injection, schedule: Q01DX009 (ip), vehicle: saline
[2] = dose: 25.0 mg/kg/injection, schedule: Q01DX009 (ip), vehicle: saline
[3] = dose: 50.0 mg/kg/injection, schedule: Q01DX009 (ip), vehicle: saline
[4] = dose: 100.0 mg/kg/injection, schedule: Q01DX009 (ip), vehicle: saline
[5] = dose: 200.0 mg/kg/injection, schedule: Q01DX009 (ip), vehicle: saline
[6] = dose: 50.0 mg/kg/injection, schedule: Q01DX005 (ip), vehicle: saline with Tween-80
[7] = dose: 100.0 mg/kg/injection, schedule: Q01DX005 (ip), vehicle: saline with Tween-80
[8] = dose: 200.0 mg/kg/injection, schedule: Q01DX005 (ip), vehicle: saline with Tween-80
[9] = dose: 60.0 mg/kg/injection, schedule: Q01DX005 (ip), vehicle: saline with Tween-80
[10] = dose: 120.0 mg/kg/injection, schedule: Q01DX005 (ip), vehicle: saline with Tween-80
[11] = dose: 240.0 mg/kg/injection, schedule: Q01DX005 (ip), vehicle: saline with Tween-80
[12] = dose: 50.0 mg/kg/injection, schedule: Q01DX005 (ip), vehicle: Klucel (hydroxypropylcellulose) (HPC)
[13] = dose: 100.0 mg/kg/injection, schedule: Q01DX005 (ip), vehicle: Klucel (hydroxypropylcellulose) (HPC)
[14] = dose: 100.0 mg/kg/injection, schedule: Q04DX003 (ip), vehicle: saline with Tween-80
[15] = dose: 200.0 mg/kg/injection, schedule: Q04DX003 (ip), vehicle: saline with Tween-80
[16] = dose: 400.0 mg/kg/injection, schedule: Q04DX003 (ip), vehicle: saline with Tween-80

With O=C(N/N=C/c1cc(Cl)cc(Cl)c1[O-])c1ccccc1.O=C(N/N=C/c1cc(Cl)cc(Cl)c1[O-])c1ccccc1.[Cu+2] the T/C (dose: 100.0 mg/kg/injection, schedule: Q01DX001 (ip), vehicle: saline with Tween-80) was 94 % of control, the T/C (dose: 200.0 mg/kg/injection, schedule: Q01DX001 (ip), vehicle: saline with Tween-80) was 92 % of control and the T/C (dose: 400.0 mg/kg/injection, schedule: Q01DX001 (ip), vehicle: saline with Tween-80) was 104 % of control.

With O=C1C=CC(=O)C=C1 (tested in a mixture with another compound) the T/C (dose: 1.0 mg/kg/injection, schedule: Q01DX009 (ip), vehicle: saline sonified) was 100 % of control, the T/C (dose: 2.0 mg/kg/injection, schedule: Q01DX009 (ip), vehicle: saline sonified) was 109 % of control and the T/C (dose: 3.0 mg/kg/injection, schedule: Q01DX009 (ip), vehicle: saline sonified) was 100 % of control. For the same compound, the T/C (dose: 6.0 mg/kg/injection, schedule: Q01DX009 (ip), vehicle: saline sonified) was 100 % of control.

With Cc1ccc(C(CC(=O)O)C(N)C(=O)O)cc1 (stereo not drawn) the T/C [1] was 98 % of control, the T/C [2] was 88 % of control and the T/C [3] was 95 % of control and 96 % of control. For the same compound, the T/C [4] was 100 % of control and the T/C [5] was 95 % of control.

In the case of CCCCC(CC)CN(CC(CC)CCCC)C(=O)C(C)O (stereo not drawn), the T/C [6] is reported as 105 % of control, the T/C [7] is reported as 103 % of control and the T/C [8] is reported as 108 % of control.

CC1=C[C@@H]2c3cccc4c3c(cn4C)C[C@H]2N(C)C1 was tested, and the T/C [6] was 99 % of control and the T/C [7] was 100 % of control.

With O=C(CCS(=O)O)c1ccccc1 the T/C (dose: 100.0 mg/kg/injection, schedule: Q04DX002 (ip), vehicle: saline) was 101 % of control, the T/C (dose: 200.0 mg/kg/injection, schedule: Q04DX002 (ip), vehicle: saline) was 100 % of control and the T/C (dose: 400.0 mg/kg/injection, schedule: Q04DX002 (ip), vehicle: saline) was 94 % of control.

In the case of CC(=O)OC1CC(c2ccccc2)=NO1 (stereo not drawn), the T/C (dose: 60.0 mg/kg/injection, schedule: Q01DX005 (ip), vehicle: Klucel (hydroxypropylcellulose) (HPC)) is reported as 106 % of control, the T/C (dose: 120.0 mg/kg/injection, schedule: Q01DX005 (ip), vehicle: Klucel (hydroxypropylcellulose) (HPC)) is reported as 95 % of control and the T/C (dose: 240.0 mg/kg/injection, schedule: Q01DX005 (ip), vehicle: Klucel (hydroxypropylcellulose) (HPC)) is reported as 103 % of control.

For O=C(Nc1cccc(Cl)c1)Oc1cccnc1, the T/C [9] was 99 % of control, the T/C [10] was 88 % of control and the T/C [11] was 89 % of control.

O=C1OCC/C1=C\NCCCN/C=C1\CCOC1=O was tested, and the T/C [9] was 107 % of control, the T/C [10] was 100 % of control and the T/C [11] was 105 % of control.

For CC(=O)CCS(=O)Cc1ccccc1 (stereo not drawn), the T/C [9] was 103 % of control, the T/C [10] was 98 % of control and the T/C [11] was 111 % of control.

With Cc1cc(=O)oc2c1c(=O)[nH]n2-c1ccccc1 the T/C [12] was 95 % of control, the T/C [13] was 87 % of control and the T/C (dose: 200.0 mg/kg/injection, schedule: Q01DX005 (ip), vehicle: Klucel (hydroxypropylcellulose) (HPC)) was 86 % of control.

With CSC(SC)=C1C(=O)NC(=O)NC1=O the T/C (dose: 3.12 mg/kg/injection, schedule: Q01DX009 (ip), vehicle: saline with Tween-80) was 104 % of control, the T/C (dose: 6.25 mg/kg/injection, schedule: Q01DX009 (ip), vehicle: saline with Tween-80) was 90 % of control and the T/C (dose: 6.25 mg/kg/injection, schedule: Q01DX009 (ip), vehicle: saline) was 111 % of control. For the same compound, the T/C (dose: 12.5 mg/kg/injection, schedule: Q01DX009 (ip), vehicle: saline with Tween-80) was 120 % of control, the T/C [1] was 111 % of control and the T/C [2] was 124 % of control. The T/C [12] was 95 % of control and the T/C [13] was 101 % of control.

In the case of O=C(Nc1ccc(Cl)cc1)Nc1nnc2nc(C(C(=O)/C=C/c3ccccc3)c3nc4nnc(NC(=O)Nc5ccc(Cl)cc5)n4[nH]c3=O)c(=O)[nH]n12, the T/C [9] is reported as 103 % of control, the T/C [10] is reported as 95 % of control and the T/C [11] is reported as 91 % of control.

With COc1cc2c(cc1OC)[C@H](Cc1ccc(Oc3cc4c(cc3O)-c3c(OC)c(OC)cc5c3[C@@H](C4)N(C)CC5)cc1)N(C)CC2 the T/C (dose: 11.88 mg/kg/injection, schedule: Q01DX005 (ip), vehicle: Klucel (hydroxypropylcellulose) (HPC)) was 98 % of control, the T/C (dose: 23.75 mg/kg/injection, schedule: Q01DX005 (ip), vehicle: Klucel (hydroxypropylcellulose) (HPC)) was 92 % of control and the T/C (dose: 47.5 mg/kg/injection, schedule: Q01DX005 (ip), vehicle: Klucel (hydroxypropylcellulose) (HPC)) was 93 % of control. For the same compound, the T/C (dose: 95.0 mg/kg/injection, schedule: Q01DX005 (ip), vehicle: Klucel (hydroxypropylcellulose) (HPC)) was 105 % of control.

With COC(=O)[C@@]12OC[C@]34C([C@@H](O)C1O)[C@@]1(C)CC(=O)C(OS(=O)(=O)C(F)(F)F)=C(C)C1C[C@H]3OC(=O)[C@H](OC(=O)/C=C(\C)C(C)C)[C@H]42 (stereo partly drawn) the T/C (dose: 0.25 mg/kg/injection, schedule: Q01DX005 (ip), vehicle: DMSO) was 101 % of control, the T/C (dose: 0.5 mg/kg/injection, schedule: Q01DX005 (ip), vehicle: DMSO) was 108 % of control and the T/C (dose: 1.0 mg/kg/injection, schedule: Q01DX005 (ip), vehicle: DMSO) was 109 % of control and 97 % of control. For the same compound, the T/C (dose: 2.0 mg/kg/injection, schedule: Q01DX005 (ip), vehicle: DMSO) was 107 % of control and 118 % of control, the T/C (dose: 4.0 mg/kg/injection, schedule: Q01DX005 (ip), vehicle: DMSO) was 107 % of control and the T/C (dose: 8.0 mg/kg/injection, schedule: Q01DX005 (ip), vehicle: DMSO) was 115 % of control.

With COc1cc(/C=C/C(N)=O)cc(OC)c1OC the T/C (dose: 50.0 mg/kg/injection, schedule: Q04DX003 (ip), vehicle: saline with Tween-80) was 94 % of control, the T/C [14] was 90 % of control and the T/C [15] was 99 % of control. The T/C [16] was 100 % of control.

With O=C1C=C(c2ccccc2)S(=O)(=O)c2ccc(O)cc21 the T/C [6] was 121 % of control and the T/C [7] was 110 % of control.

With CC1CN=C(c2ccc(NC(=O)c3ccc(C(=O)Nc4ccc(C5=NCC(C)N5)cc4)cc3)cc2)N1 (stereo not drawn) the T/C (dose: 6.25 mg/kg/injection, schedule: Q01DX009 (ip), vehicle: suspension in saline) was 184 % of control, the T/C (dose: 10.0 mg/kg/injection, schedule: Q01DX010 (ip), vehicle: saline) was 209 % of control and the T/C (dose: 12.5 mg/kg/injection, schedule: Q01DX009 (ip), vehicle: suspension in saline) was 245 % of control. The T/C (dose: 15.0 mg/kg/injection, schedule: Q01DX010 (ip), vehicle: saline) was 231 % of control, the T/C (dose: 22.0 mg/kg/injection, schedule: Q01DX010 (ip), vehicle: saline) was 154 % of control and the T/C (dose: 25.0 mg/kg/injection, schedule: Q01DX009 (ip), vehicle: suspension in saline) was 294 % of control. For the same compound, the T/C (dose: 33.0 mg/kg/injection, schedule: Q01DX010 (ip), vehicle: saline) was 209 % of control, the T/C (dose: 50.0 mg/kg/injection, schedule: Q01DX009 (ip), vehicle: suspension in saline) was 166 % of control and the T/C (dose: 100.0 mg/kg/injection, schedule: Q01DX009 (ip), vehicle: suspension in saline) was 154 % of control.

In the case of O=C1OC(C(F)(F)F)=NC1Cc1ccccc1 (stereo not drawn), the T/C [14] is reported as 107 % of control, the T/C [15] is reported as 98 % of control and the T/C [16] is reported as 101 % of control.

For O=C(O)/C=C/c1ccc(O)c(O)c1, the T/C [3] was 101 % of control and 103 % of control, the T/C [4] was 101 % of control and 118 % of control and the T/C [5] was 102 % of control and 107 % of control. The T/C (dose: 400.0 mg/kg/injection, schedule: Q01DX009 (ip), vehicle: saline) was 100 % of control and 103 % of control and the T/C (dose: 600.0 mg/kg/injection, schedule: Q01DX009 (ip), vehicle: saline) was 116 % of control.

C/C=C(\C)C(=O)OCC1(C)C(OC(=O)/C(C)=C/C)CCC2(C)C3C(=O)C=C(C)C2C31 (stereo not drawn) was tested, and the T/C (dose: 25.0 mg/kg/injection, schedule: Q04DX002 (ip), vehicle: saline with Tween-80) was 110 % of control, the T/C (dose: 50.0 mg/kg/injection, schedule: Q04DX002 (ip), vehicle: saline with Tween-80) was 94 % of control and the T/C (dose: 100.0 mg/kg/injection, schedule: Q04DX002 (ip), vehicle: saline with Tween-80) was 97 % of control.

In the case of COc1ccc(-c2nccc3cc(OC)c(OC)cc23)cc1O, the T/C (dose: 25.0 mg/kg/injection, schedule: Q01DX009 (ip), vehicle: other) is reported as 100 % of control, the T/C (dose: 50.0 mg/kg/injection, schedule: Q01DX009 (ip), vehicle: other) is reported as 86 % of control and the T/C (dose: 100.0 mg/kg/injection, schedule: Q01DX009 (ip), vehicle: other) is reported as 86 % of control.

For Cc1ccc(S(=O)(=O)OCC(OS(=O)(=O)c2ccc(C)cc2)C2OC3OC(C)(C)OC3C2O)cc1 (stereo not drawn), the T/C [6] was 103 % of control, the T/C [7] was 97 % of control and the T/C [8] was 96 % of control.
